The target in one assay is T1, hNaV1.6-WT (Homo sapiens, UniProt Q9UQD0).
T1 construct: expressed in transfected cells; host or cells: HEK-293
As to the kind of experiment: Voltage step activated sodium current (Peak INa), PatchXpress, HEK-293. The class given is cell-based. To be noted: HEK293; percent inhibition measured at 1 μM; step to 0 mV from half-inactivation holding potential. On the procedure:
(§1) Functional characterization of exemplary compounds to modulate INa expressed by various human isoforms and disease-causing mutant voltage-gated sodium channels was accomplished using the PatchXpress high throughput electrophysiology platform (Molecular Devices, Sunnyvale, Calif.). HEK-293 cells expressing a recombinant, human NaV1.X sodium channel (either hNaV1.6-WT, hNaV1.6-R223G, hNaV1.6-N984K, hNaV1.6-N1768D, hNaV1.1-WT, hNaV1.2-WT, hNaV1.5-WT, hNaV1.7-WT, or hNaV1.8-WT) were grown in DMEM/high-glucose Dulbecco's modified, 10% FBS, 2 mM sodium pyruvate, 10 mM HEPES and 400 μg/mL G418. Cells were grown to 50%-80% confluency prior to harvesting. Trypsinized cells were washed, allowed to recover for 1 hour and then resuspended in extracellular recording solution at a concentration of 1×10^6 cells/ml. The onboard liquid handling facility of the PatchXpress was used for dispensing cells and applying test compounds. INa amplitude and stability were determined by analyzing the peak current amplitude.
(§2) Peak INa was evoked by depolarizing steps to 0 mV for 20 ms from a holding potential which evoked half-inactivation (e.g., −60 mV) at a frequency of 0.1 Hz. The voltage of half-inactivation was determined for each cell using a 5 sec prepulse to membrane potentials between −120 mV and −20 mV followed immediately by a voltage step to a fully activating membrane voltage (e.g., 0 mV). Following steady state block with exemplary compounds (e.g., as described herein), the degree of inhibition was measured using the average of three consecutive voltage steps. Percent steady-state inhibition of INa was calculated as: [(INa_compound)/(INa_control)]*100, where INa_compound and INa_control represent INa recorded in the presence or absence of compound, respectively.
(§3) In this table, “A” indicates inhibition between less than 0% to 50% and “B” indicates inhibition of greater than 50% and N/A indicates the compound was not tested.

The target of a further assay is T2, hNaV1.2-WT (Homo sapiens, UniProt Q99250).
T2 construct: expressed in transfected cells; host or cells: HEK-293
The assay is described as above. Format: cell-based. To be noted: percent inhibition measured at 1 μM; step to 0 mV from half-inactivation holding potential. The protocol: as §1, §2, §3

For another assay, the target named is T3, hNaV1.7-WT (Homo sapiens, UniProt Q15858).
T3 construct: expressed in transfected cells; host or cells: HEK-293
The description is as above. Format: cell-based. Particulars: HEK293; percent inhibition measured at 1 μM; step to 0 mV from half-inactivation holding potential. On the procedure:
as §1, §2, §3

The target in another assay is T4, hNaV1.8-WT (Homo sapiens, UniProt Q9Y5Y9).
T4 construct: expressed in transfected cells; host or cells: HEK-293
Described as above. The class given is cell-based. To be noted: HEK293; percent inhibition measured at 1 μM; step to 0 mV from half-inactivation holding potential. On the procedure:
as §1, §2, §3

The next assay addresses T5, hNaV1.1-WT (Homo sapiens, UniProt P35498).
T5 construct: expressed in transfected cells; host or cells: HEK-293
The description is as above. The class given is cell-based. To be noted: percent inhibition measured at 1 μM; step to 0 mV from half-inactivation holding potential. The protocol:
as §1, §2, §3

The target of the next assay is T6, hNaV1.5-WT (Homo sapiens, UniProt Q14524).
T6 construct: expressed in transfected cells; host or cells: HEK-293
The assay is described as above. Format: cell-based. Particulars: HEK293; percent inhibition measured at 1 μM; step to 0 mV from half-inactivation holding potential. On the procedure:
as §1, §2, §3

Assay [1] addresses T7, human NaV 1.2 (h NaV 1.2) (Homo sapiens, UniProt Q99250).
T7 construct: expressed in transfected cells; host or cells: HEK-293
In words: Modulation of late sodium current (INaL), PatchXpress electrophysiology, HEK-293 cells expressing hNaV1.2. The class given is cell-based. To be noted: HEK293, read-out: NaV 1.2 Assay Data: percent inhibition of INaL at hNaV1.2.

The next assay addresses T8, hNaV1.6-R223G (Homo sapiens, UniProt Q9UQD0, R223G).
T8 construct: expressed in transfected cells; host or cells: HEK-293
As to the kind of experiment: Voltage ramp activated sodium current (Ramp INa), PatchXpress, HEK-293. Format: cell-based. Particulars: HEK293; percent inhibition of enhanced ramp current at 1 μM; +600 mv/sec ramp from −100 mV to +20 mV. The protocol: as §1
(§4) The Nav1.6 mutant channels (hNaV1.6-R223G, hNaV1.6-N984K, hNaV1.6-N1768D) express an enhanced sodium current in response to a ramp voltage depolarization when compared to the wild-type hNaV1.6-WT. This enhanced, depolarizing ramp current is thought to contribute to enhanced neuronal excitability. The degree of block with exemplary compounds (e.g., as described herein) was measured using a +600 mv/sec voltage ramp from −100 mV to +20 mV. The ramp current was defined as the area of the current measured between −55 mV and +15 mV. Following steady state block with exemplary compounds (e.g., as described herein) at 1 μM, a Na^+ free solution containing an impermeant cation (e.g., Choline or NMDG) was added for determination of the baseline current level for offline subtraction. Percent inhibition of enhanced ramp current was calculated as (compound−baseline)/(control−baseline)*100, where control represents the ramp current recorded in the absence of compound. In this table, “A” indicates inhibition between less than 0% to 50% and “B” indicates inhibition of greater than 50% and N/A indicates the compound was not tested.

The next assay concerns the target T9, hNaV1.6-N984K (Homo sapiens, UniProt Q9UQD0, N984K).
T9 construct: expressed in transfected cells; host or cells: HEK-293
Described as above. Format: cell-based. Particulars: HEK293; percent inhibition of enhanced ramp current at 1 μM; +600 mv/sec ramp from −100 mV to +20 mV. On the procedure: as §1, §4

In a further assay the target is T10, hNaV1.6-N1768D (Homo sapiens, UniProt Q9UQD0, N1768D).
T10 construct: expressed in transfected cells; host or cells: HEK-293
The description is as above. Particulars: HEK293; percent inhibition of enhanced ramp current at 1 μM; +600 mv/sec ramp from −100 mV to +20 mV. Format: cell-based. On the procedure: as §1, §4

Another assay deals with T11, human NaV1.6 (hNaV1.6) (Homo sapiens, UniProt Q9UQD0).
T11 construct: expressed in transfected cells; host or cells: HEK-293
In words: Modulation of late sodium current (INaL), PatchXpress electrophysiology, HEK-293 cells expressing hNaV1.6. The class given is cell-based. To be noted: HEK293, late current evoked by 300 nM ATX-II, read-out: NaV 1.6 Assay Data: percent inhibition of INaL at hNaV1.6. In short, it runs like this:
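PatchXpress automated patch clamp on HEK-293 cells expressing recombinant hNaV1.6; late current enhanced with 300 nM ATX-II. INaL evoked by 200 ms steps to 0 mV from about −120 mV at 0.1 Hz, measured as mean amplitude over the final 20 ms. Percent steady-state inhibition versus control current.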

Another assay concerns Male CD-1 mice. As to the kind of experiment: Maximal Electroshock induced Seizure (MES) assay in mice. Format: in vivo, mouse. To be noted: 35% HPCD, pre-treatment 30 min, recorded up to 60 seconds post stimulus. On the procedure: Male CD-1 mice, weighing 25-35 g were assessed in the Maximal Electroshock induced Seizure (MES) assay. Briefly, mice were dosed with compound (n=12/group) according to the dosing parameters in Table 20 and the latency to induce tonic hind limb extension following transauricular electrical stimulation (50 Hz, 50 mA, 0.8 sec duration, pulse width of 10 ins) was recorded up to 60 seconds post stimulus.

In general, inhibition refers to the percentage by which the read-out fell short of the control.

T2 sequence (Q99250 whole entry): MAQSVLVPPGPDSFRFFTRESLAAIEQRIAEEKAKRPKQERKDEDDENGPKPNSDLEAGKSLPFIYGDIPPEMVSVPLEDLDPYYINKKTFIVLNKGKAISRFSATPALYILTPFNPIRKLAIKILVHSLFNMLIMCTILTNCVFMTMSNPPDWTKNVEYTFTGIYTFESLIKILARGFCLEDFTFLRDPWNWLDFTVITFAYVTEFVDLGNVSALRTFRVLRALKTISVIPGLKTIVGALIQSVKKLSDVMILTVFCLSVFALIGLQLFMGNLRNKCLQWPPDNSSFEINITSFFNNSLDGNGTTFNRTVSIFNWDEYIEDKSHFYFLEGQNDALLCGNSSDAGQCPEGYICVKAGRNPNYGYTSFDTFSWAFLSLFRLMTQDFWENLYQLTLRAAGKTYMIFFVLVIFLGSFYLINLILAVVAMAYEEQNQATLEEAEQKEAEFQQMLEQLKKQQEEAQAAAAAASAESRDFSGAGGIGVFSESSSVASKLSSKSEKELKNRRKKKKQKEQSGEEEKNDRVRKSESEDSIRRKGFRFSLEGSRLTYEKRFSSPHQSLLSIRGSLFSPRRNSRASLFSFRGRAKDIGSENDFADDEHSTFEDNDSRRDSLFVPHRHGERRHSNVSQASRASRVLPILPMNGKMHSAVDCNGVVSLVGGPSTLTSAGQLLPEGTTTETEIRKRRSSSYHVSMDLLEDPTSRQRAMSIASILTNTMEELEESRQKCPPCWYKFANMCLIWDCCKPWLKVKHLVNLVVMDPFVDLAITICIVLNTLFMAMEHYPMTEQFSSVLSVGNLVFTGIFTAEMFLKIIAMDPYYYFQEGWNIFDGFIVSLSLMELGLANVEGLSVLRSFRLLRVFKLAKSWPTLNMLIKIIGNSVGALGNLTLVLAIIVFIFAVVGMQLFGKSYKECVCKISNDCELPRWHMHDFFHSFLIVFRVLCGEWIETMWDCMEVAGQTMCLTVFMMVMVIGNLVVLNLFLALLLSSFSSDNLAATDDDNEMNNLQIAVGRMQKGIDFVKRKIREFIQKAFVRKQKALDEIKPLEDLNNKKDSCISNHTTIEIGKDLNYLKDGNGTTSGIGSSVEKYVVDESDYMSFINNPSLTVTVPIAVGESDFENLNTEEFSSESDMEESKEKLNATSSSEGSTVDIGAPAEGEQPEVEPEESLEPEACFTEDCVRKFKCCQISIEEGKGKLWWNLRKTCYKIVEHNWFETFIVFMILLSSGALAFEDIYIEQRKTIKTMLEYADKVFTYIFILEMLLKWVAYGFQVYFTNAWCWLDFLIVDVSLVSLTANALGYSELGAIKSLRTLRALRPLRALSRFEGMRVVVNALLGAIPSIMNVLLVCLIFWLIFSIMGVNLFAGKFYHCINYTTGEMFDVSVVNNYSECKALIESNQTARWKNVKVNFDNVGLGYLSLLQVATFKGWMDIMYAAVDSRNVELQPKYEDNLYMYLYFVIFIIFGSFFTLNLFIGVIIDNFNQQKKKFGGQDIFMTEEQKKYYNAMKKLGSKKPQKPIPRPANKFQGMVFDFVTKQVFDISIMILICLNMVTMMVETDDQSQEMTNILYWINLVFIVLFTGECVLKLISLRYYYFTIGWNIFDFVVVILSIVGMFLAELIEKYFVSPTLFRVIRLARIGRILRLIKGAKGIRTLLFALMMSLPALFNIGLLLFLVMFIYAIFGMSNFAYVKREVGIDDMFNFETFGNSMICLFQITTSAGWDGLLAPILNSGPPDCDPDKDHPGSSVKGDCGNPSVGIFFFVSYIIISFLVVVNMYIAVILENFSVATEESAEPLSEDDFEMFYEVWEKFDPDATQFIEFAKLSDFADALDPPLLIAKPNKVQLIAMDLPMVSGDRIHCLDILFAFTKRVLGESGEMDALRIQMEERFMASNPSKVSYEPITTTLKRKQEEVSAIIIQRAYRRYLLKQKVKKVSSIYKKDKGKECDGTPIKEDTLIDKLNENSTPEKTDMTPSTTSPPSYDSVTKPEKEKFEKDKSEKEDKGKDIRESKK
T7 sequence (Q99250 whole entry): as above
T9 sequence (Q9UQD0 whole entry N984K): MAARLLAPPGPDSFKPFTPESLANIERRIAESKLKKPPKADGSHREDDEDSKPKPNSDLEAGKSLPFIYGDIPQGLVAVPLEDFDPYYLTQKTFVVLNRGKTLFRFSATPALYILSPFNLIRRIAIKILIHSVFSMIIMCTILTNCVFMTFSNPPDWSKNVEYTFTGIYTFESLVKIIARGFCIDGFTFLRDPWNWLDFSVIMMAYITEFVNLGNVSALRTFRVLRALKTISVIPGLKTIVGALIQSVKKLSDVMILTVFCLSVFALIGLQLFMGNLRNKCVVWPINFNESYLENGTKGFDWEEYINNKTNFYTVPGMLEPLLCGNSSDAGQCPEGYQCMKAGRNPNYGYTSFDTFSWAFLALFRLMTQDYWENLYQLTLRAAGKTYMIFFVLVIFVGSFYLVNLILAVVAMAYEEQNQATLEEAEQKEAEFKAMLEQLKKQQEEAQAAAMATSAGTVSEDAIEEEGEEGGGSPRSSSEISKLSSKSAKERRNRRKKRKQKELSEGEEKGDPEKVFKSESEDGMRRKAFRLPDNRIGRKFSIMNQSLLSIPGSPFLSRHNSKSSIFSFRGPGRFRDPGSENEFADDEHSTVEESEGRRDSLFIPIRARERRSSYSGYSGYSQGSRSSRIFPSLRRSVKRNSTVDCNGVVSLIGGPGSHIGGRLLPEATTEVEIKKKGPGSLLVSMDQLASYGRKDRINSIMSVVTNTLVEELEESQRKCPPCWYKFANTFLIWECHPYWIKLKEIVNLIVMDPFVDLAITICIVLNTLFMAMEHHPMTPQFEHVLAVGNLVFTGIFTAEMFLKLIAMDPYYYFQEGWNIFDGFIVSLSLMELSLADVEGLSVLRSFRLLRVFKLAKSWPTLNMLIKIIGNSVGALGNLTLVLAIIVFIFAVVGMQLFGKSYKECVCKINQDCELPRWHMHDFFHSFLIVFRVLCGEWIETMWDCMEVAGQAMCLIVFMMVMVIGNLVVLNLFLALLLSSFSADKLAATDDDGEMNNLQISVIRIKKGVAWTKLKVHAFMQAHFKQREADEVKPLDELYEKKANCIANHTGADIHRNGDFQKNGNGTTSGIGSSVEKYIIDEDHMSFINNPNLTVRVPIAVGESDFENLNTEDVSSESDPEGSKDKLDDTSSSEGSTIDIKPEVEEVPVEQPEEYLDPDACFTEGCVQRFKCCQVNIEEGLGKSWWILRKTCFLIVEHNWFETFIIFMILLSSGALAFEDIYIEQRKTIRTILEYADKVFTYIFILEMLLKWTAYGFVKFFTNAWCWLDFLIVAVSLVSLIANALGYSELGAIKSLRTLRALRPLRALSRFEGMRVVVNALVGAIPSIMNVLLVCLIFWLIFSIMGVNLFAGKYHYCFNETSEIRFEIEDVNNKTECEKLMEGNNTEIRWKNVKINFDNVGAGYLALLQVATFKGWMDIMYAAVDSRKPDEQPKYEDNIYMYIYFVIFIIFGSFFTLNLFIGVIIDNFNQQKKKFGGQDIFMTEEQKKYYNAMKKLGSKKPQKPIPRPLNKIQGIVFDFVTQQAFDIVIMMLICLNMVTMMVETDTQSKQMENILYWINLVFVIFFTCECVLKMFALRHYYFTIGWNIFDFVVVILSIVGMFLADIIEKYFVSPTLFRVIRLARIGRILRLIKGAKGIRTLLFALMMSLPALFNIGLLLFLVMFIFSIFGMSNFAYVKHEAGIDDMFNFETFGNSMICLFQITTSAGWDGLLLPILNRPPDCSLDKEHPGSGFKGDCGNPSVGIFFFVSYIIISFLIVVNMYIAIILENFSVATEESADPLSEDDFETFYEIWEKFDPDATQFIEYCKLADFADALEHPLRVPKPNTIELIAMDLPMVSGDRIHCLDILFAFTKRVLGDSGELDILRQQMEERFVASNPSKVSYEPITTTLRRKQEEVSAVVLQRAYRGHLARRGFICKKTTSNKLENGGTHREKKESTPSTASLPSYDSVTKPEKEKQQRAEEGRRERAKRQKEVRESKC
T8 sequence (Q9UQD0 whole entry R223G): as the sequence (Q9UQD0 whole entry N984K) above, with R223G, K984N counted along it
T11 sequence (Q9UQD0 whole entry): as the sequence (Q9UQD0 whole entry N984K) above, with K984N counted along it
T1 sequence (Q9UQD0 whole entry): as the sequence (Q9UQD0 whole entry N984K) above, with K984N counted along it
T10 sequence (Q9UQD0 whole entry N1768D): as the sequence (Q9UQD0 whole entry N984K) above, with K984N, N1768D counted along it

With `COC(F)(F)c1nnc2cnc(-c3cnc(OCC(F)(F)F)c(F)c3)cn12` [Compound 53, 3-[difluoro(methoxy)methyl]-6-[5-fluoro-6-(2,2,2-trifluoroethoxy)-3-pyridyl]-[1,2,4]triazolo[4,3-a]pyrazine], the inhibition at 1 µM is over 50% against hNaV1.6-WT; over 50% against hNaV1.7-WT; over 50% against hNaV1.8-WT; over 50% against hNaV1.5-WT; over 70% in assay [1]; under 50% on hNaV1.6-R223G. Also, the inhibition at 1 µM at hNaV1.6-N984K was under 50%; at hNaV1.6-N1768D it was over 50%; on human NaV1.6 (hNaV1.6), over 70%. Besides, the “hNav1.2 Peak INa” value at hNaV1.2-WT is recorded as “A (inhibition between less than 0% to 50%)”. For the same compound, at hNaV1.1-WT, the “hNav1.1 Peak INa” value is recorded as “B (inhibition of greater than 50%)”. Further, the entries for the “Mean latency to tonic extension” value in the assay with Male CD-1 mice (1 mg/kg PO), with Male CD-1 mice (3 mg/kg PO) and with Male CD-1 mice (10 mg/kg PO) were 36.4 s, 60 s and 60 s, respectively.

Consider `COC(F)(F)c1nnc2cnc(-c3ccc(O[C@H](C)C(F)(F)F)nc3)cn12` [Compound 62, 3-[difluoro(methoxy)methyl]-6-[6-[(1R)-2,2,2-trifluoro-1-methyl-ethoxy]-3-pyridyl]-[1,2,4]triazolo[4,3-a]pyrazine], for which the inhibition at 1 µM against hNaV1.6-WT was over 50%; at hNaV1.7-WT, over 50%; against hNaV1.8-WT, over 50%; on hNaV1.5-WT, over 50%; in [1], over 70%; at hNaV1.6-R223G, under 50%. The inhibition at 1 µM is over 50% on hNaV1.6-N984K, over 50% on hNaV1.6-N1768D and over 70% at human NaV1.6 (hNaV1.6). Further, at hNaV1.2-WT, the “hNav1.2 Peak INa” value is “B (inhibition of greater than 50%)”. Moreover, on hNaV1.1-WT, the “hNav1.1 Peak INa” value is given as “B (inhibition of greater than 50%)”. Further, the “Mean latency to tonic extension” value was 17.6 s with Male CD-1 mice (1 mg/kg PO) and 46.1 s in the assay with Male CD-1 mice (3 mg/kg PO).

These data come from patent publication US11731976B2, “3-(ethoxydifluoromethyl)-6-(5-fluoro-6-(2,2,2-trifluoroethoxy)pyridin-3-yl)-[1,2,4]triazolo[4,3-a]pyridine as an ion channel modulator” (Praxis Precision Medicines, Inc., priority 2018, dated 2023).
